We go through eleven molecules from US12178842B2, “PCSK9 antagonist compounds” (MERCK SHARP & DOHME LLC, priority 2019, dated 2024).

What all share (format): binding
Assay [1] deals with T1, PCSK9 (Homo sapiens, UniProt Q8NBP7).
T1 construct: biotin (biotinylated); purchased
Briefly: PCSK9 Alexa FRET Plus TR-FRET assay. The method in brief: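 TR-FRET competition between europium-labeled PCSK9 and AlexaFluor-tagged cyclic peptide (prepared at 1920 nM stock), incubated at least 2 h at room temperature. IC50 from sigmoidal nonlinear fit converted to Ki using the peptide KD; falling europium counts flag false-positive inhibition; values reported in nM.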

In assay [2] the target is T1, PCSK9. Briefly: PCSK9 Alexa FRET Standard TR-FRET assay. The following applies: Ki calculated from IC50 and KD of AF cyclic peptide Reagent A; 0.5 nM PCSK9, 20 nM AF cyclic peptide; read-out: Alexa FRET Stdt TR-FRET. The method in brief: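 TR-FRET displacement with final 0.5 nM biotinylated PCSK9, 1.25 nM streptavidin-Eu and 20 nM AlexaFluor cyclic peptide in 50 mM HEPES pH 7.4, 0.15 M NaCl, 5 mM CaCl2, 0.01% BSA, 0.01% P20; ≥2 h at room temperature. IC50 by sigmoidal fit, converted to Ki (nM) using tracer KD.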

Assay [3] concerns the target T1, PCSK9. Briefly: PCSK9 Alexa FRET Ultra TR-FRET assay. Summed up:
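Competition of compounds with AlexaFluor-tagged cyclic peptide (1920 nM solution, not final) for europium-labeled PCSK9, read by TR-FRET after at least 2 h at room temperature. IC50 from sigmoidal fit, converted to Ki (nM) using peptide KD; falling europium counts flag false positives.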
(Time-resolved FRET reads energy transfer from a long-lived donor to a nearby acceptor.)

[4] abbreviates: Ki calculated from IC50 and KD of AF cyclic peptide Reagent B, 0.5 nM PCSK9, 960 nM AF cyclic peptide, read-out: Alexa FRET Plus TR-FRET.
Where [5] appears, read: Ki Ultra, calculated from IC50 and KD of AF cyclic peptide, 0.5 nM PCSK9, 960 nM AF cyclic peptide, read-out: Alexa FRET Ultra TR-FRET.

T1 sequence (Q8NBP7 153-692): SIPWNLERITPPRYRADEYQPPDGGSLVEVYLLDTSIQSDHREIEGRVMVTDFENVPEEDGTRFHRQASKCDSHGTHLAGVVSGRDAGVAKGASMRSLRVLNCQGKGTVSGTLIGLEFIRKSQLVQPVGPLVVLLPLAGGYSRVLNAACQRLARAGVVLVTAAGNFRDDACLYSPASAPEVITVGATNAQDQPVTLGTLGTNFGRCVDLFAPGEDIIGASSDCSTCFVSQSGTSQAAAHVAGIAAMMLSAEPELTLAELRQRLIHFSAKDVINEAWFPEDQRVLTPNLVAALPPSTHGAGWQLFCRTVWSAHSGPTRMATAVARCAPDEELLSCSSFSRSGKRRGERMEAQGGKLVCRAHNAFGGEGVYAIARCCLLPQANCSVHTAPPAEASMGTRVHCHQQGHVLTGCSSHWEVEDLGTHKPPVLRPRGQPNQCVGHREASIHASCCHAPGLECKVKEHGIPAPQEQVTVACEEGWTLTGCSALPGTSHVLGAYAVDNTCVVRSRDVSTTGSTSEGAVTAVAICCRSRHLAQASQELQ

Turning to `COc1ccc(C[C@@H]2NC(=O)[C@H]([C@@H](C)O)NC(=O)[C@@H]3[C@@H]4CCN3C(=O)[C@@H]3Cc5cn(c6ccc(F)cc56)CCCCCCN(Cc5ccc(cc5)CCNC(=O)[C@]5(C)CCCN5C2=O)C(=O)CCC(=O)N[C@@H](C)C(=O)N[C@H](CNC(=O)COCCOCC[N+](C)(C)CCOCCNC(=O)COCCOCCNC(=O)COCCOCCNC(=O)CC[C@H](NC(=O)CC[C@H](NC(=O)CCCCCCCCCCCCCCC(=O)O)C(=O)O)C(=O)O)C(=O)N[C@@H](Cc2cccc(c2)CNC(=O)CO4)C(=O)N3)cc1` [Ex-47], the results for the Ki on PCSK9 [1] (setting [4]), at PCSK9 [2] and at PCSK9 [3] (setting [5]) were under 6 pM, under 1.26 nM and 3 pM, respectively.
In the same order, the values of `COc1ccc(C[C@@H]2NC(=O)[C@H]([C@@H](C)O)NC(=O)[C@@H]3[C@@H]4CCN3C(=O)[C@@H]3Cc5cn(c6ccc(F)cc56)CCCCCCN(Cc5ccc(cc5)CCNC(=O)[C@]5(C)CCCN5C2=O)C(=O)CCC(=O)N[C@@H](C)C(=O)N[C@H](CNC(=O)[C@@H](CCCC[N+](C)(C)C)NC(=O)COCCOCCNC(=O)COCCOCCNC(=O)CC[C@H](NC(=O)CC[C@H](NC(=O)CCCCCCCCCCCCCCCCC(=O)O)C(=O)O)C(=O)O)C(=O)N[C@@H](Cc2cccc(c2)CNC(=O)CO4)C(=O)N3)cc1` [Ex-55] are 12 pM, under 1.26 nM and 10 pM.
Consider `COc1ccc(C[C@@H]2NC(=O)[C@H]([C@@H](C)O)NC(=O)[C@@H]3[C@@H]4CCN3C(=O)[C@@H]3Cc5cn(c6ccc(F)cc56)CCCCCCN(Cc5ccc(cc5)CCNC(=O)[C@]5(C)CCCN5C2=O)C(=O)CCC(=O)N[C@@H](CNC(=O)CCOCCOCC[N+](C)(C)CCNC(=O)COCCOCCNC(=O)COCCOCCNC(=O)CC[C@H](NC(=O)CC[C@H](NC(=O)CCCCCCCCCCCCCCCCC(=O)O)C(=O)O)C(=O)O)C(=O)N[C@H](C)C(=O)N[C@@H](Cc2cccc(c2)CNC(=O)CO4)C(=O)N3)cc1` [Ex-58], for which the Ki at PCSK9 [1] (setting [4]) was 18 pM; on PCSK9 [2] it was under 1.26 nM; at PCSK9 [3] (setting [5]) it was 79 pM.
In the same order, the values of `COc1ccc(C[C@@H]2NC(=O)[C@H]([C@@H](C)O)NC(=O)[C@@H]3[C@@H]4CCN3C(=O)[C@@H]3Cc5cn(c6ccc(F)cc56)CCCCCCN(Cc5ccc(cc5)CCNC(=O)[C@]5(C)CCCN5C2=O)C(=O)CCC(=O)N[C@@H](C)C(=O)N[C@H](CNC(=O)CCOCCOCC[N+](C)(C)CCNC(=O)CCOCCOCC[N+](C)(C)CCNC(=O)COCCOCCNC(=O)COCCOCCNC(=O)CC[C@H](NC(=O)CC[C@H](NC(=O)CCCCCCCCCCCCCCC(=O)O)C(=O)O)C(=O)O)C(=O)N[C@@H](Cc2cccc(c2)CNC(=O)CO4)C(=O)N3)cc1` [Ex-11] are 7 pM, under 1.26 nM and 6 pM.
`COc1ccc(C[C@@H]2NC(=O)[C@H]([C@@H](C)O)NC(=O)[C@@H]3[C@@H]4CCN3C(=O)[C@@H]3Cc5cn(c6ccc(F)cc56)C/C=C/CCCN(Cc5ccc(cc5)CCNC(=O)[C@]5(C)CCCN5C2=O)C(=O)CCC(=O)N[C@@H](C)C(=O)N[C@H](CNC(=O)CCOCCOCC[N+](C)(C)CCNC(=O)COCCOCCNC(=O)COCCOCCNC(=O)CC[C@H](NC(=O)CCCCCCCCCCCCCCC(=O)O)C(=O)O)C(=O)N[C@@H](Cc2cccc(c2)CNC(=O)CO4)C(=O)N3)cc1` [compound 46]: the Ki on PCSK9 [1] is under 6 pM; at PCSK9 [2] it was under 1.26 nM; on PCSK9 [3] it was 1 pM.
In the case of `COc1ccc(C[C@@H]2NC(=O)[C@H]([C@@H](C)O)NC(=O)[C@@H]3[C@@H]4CCN3C(=O)[C@@H]3Cc5cn(c6ccc(F)cc56)CCCCCCN(Cc5ccc(cc5)CCNC(=O)[C@]5(C)CCCN5C2=O)C(=O)CCC(=O)N[C@@H](C)C(=O)N[C@H](CNC(=O)CCOCCOCC[N+](C)(C)CCNC(=O)COCCOCCNC(=O)COCCOCCNC(=O)CC[C@H](NC(=O)CC[C@H](NC(=O)CCCCCCCCCCCCCCC(=O)O)C(=O)O)C(=O)O)C(=O)N[C@@H](Cc2cccc(c2)CNC(=O)CO4)C(=O)N3)cc1` [Ex-34], the Ki on PCSK9 [1] (setting [4]) is under 6 pM; at PCSK9 [2] it was under 1.26 nM; on PCSK9 [3] (setting [5]), 3 pM.
In the same order, the values of `CCCCCC/C=C\CCCCCCCC(=O)N[C@@H](CCC(=O)NCCOCCOCC(=O)NCCOCCOCC(=O)NCC[N+](C)(C)CCCCCC(=O)NC[C@H]1NC(=O)[C@H](C)NC(=O)CCC(=O)N2CCCCCCn3cc(c4cc(F)ccc43)C[C@@H]3NC(=O)[C@H](Cc4cccc(c4)CNC(=O)CO[C@H]4CCN(C3=O)[C@@H]4C(=O)N[C@@H]([C@@H](C)O)C(=O)N[C@@H](Cc3ccc(OC)cc3)C(=O)N3CCC[C@@]3(C)C(=O)NCCc3ccc(cc3)C2)NC1=O)C(=O)O` [Ex-21] are 10 pM, under 1.26 nM and 1 pM.
Regarding `COc1ccc(C[C@@H]2NC(=O)[C@H]([C@@H](C)O)NC(=O)[C@@H]3[C@@H]4CCN3C(=O)[C@@H]3Cc5cn(c6ccc(F)cc56)CCCCCCN(Cc5ccc(cc5)CCNC(=O)[C@]5(C)CCCN5C2=O)C(=O)CCC(=O)N[C@@H](C)C(=O)N[C@H](CNC(=O)CCOCCOCC[N+](C)(C)CCNC(=O)COCCOCCNC(=O)CC[C@H](NC(=O)CC[C@H](NC(=O)CC[C@H](NC(=O)CCCCCCCCCCCCCCCCC(=O)O)C(=O)O)C(=O)O)C(=O)O)C(=O)N[C@@H](Cc2cccc(c2)CNC(=O)CO4)C(=O)N3)cc1` [Ex-48], the Ki on PCSK9 [1] (setting [4]) was under 6 pM; on PCSK9 [2] it was under 1.26 nM; on PCSK9 [3] (setting [5]) it was 9 pM.
As for `COc1ccc(C[C@@H]2NC(=O)[C@H]([C@@H](C)O)NC(=O)[C@@H]3[C@@H]4CCN3C(=O)[C@@H]3Cc5cn(c6ccc(F)cc56)CCCCCCN(Cc5ccc(cc5)CCNC(=O)[C@]5(C)CCCN5C2=O)C(=O)CCC(=O)N[C@@H](C)C(=O)N[C@H](CNC(=O)CCOCCOCC[N+](C)(C)CCNC(=O)COCCOCCNC(=O)COCCOCCNC(=O)CC[C@H](NC(=O)CCCCCCCCCCCCCCC(=O)O)C(=O)O)C(=O)N[C@@H](Cc2cccc(c2)CNC(=O)CO4)C(=O)N3)cc1` [Example 4], the Ki at PCSK9 [1] was under 6 pM; at PCSK9 [2] it was under 1.26 nM; on PCSK9 [3] it was 3 pM.
As to `COc1ccc(C[C@@H]2NC(=O)[C@H]([C@@H](C)O)NC(=O)[C@@H]3[C@@H]4CCN3C(=O)[C@@H]3Cc5cn(c6ccc(F)cc56)CCCCCCN(Cc5ccc(cc5)CCNC(=O)[C@]5(C)CCCN5C2=O)C(=O)CCC(=O)N[C@@H](C)C(=O)N[C@H](CNC(=O)CCOCCOCC[N+](C)(C)CCNS(=O)(=O)CCCNS(=O)(=O)CCCNC(=O)CC[C@H](NC(=O)CCCCCCCCCCCCCCCCC(=O)O)C(=O)O)C(=O)N[C@@H](Cc2cccc(c2)CNC(=O)CO4)C(=O)N3)cc1` [Ex-68], the values for the Ki on PCSK9 [1] (setting [4]), on PCSK9 [2] and at PCSK9 [3] (setting [5]) were under 6 pM, under 1.26 nM and 5 pM, respectively.
In the same order, the values of `COc1ccc(C[C@@H]2NC(=O)[C@H]([C@@H](C)O)NC(=O)[C@@H]3[C@@H]4CCN3C(=O)[C@@H]3Cc5cn(c6ccc(F)cc56)CCCCCCN(Cc5ccc(cc5)CCNC(=O)[C@]5(C)CCCN5C2=O)C(=O)CCC(=O)N[C@@H](C)C(=O)N[C@H](CNC(=O)CCOCCOCC[N+](C)(C)CCNC(=O)COCCOCCNC(=O)COCCOCCNC(=O)CCC(CS(=O)(=O)O)NC(=O)CCCCCCCCCCCCCCCCC(=O)O)C(=O)N[C@@H](Cc2cccc(c2)CNC(=O)CO4)C(=O)N3)cc1` (stereo partly drawn) [Ex-67] are under 6 pM, under 1.26 nM and 5 pM.
